The values that follow come from patent US20250042847A1, “SUBSTITUTED PHENYLPROPIONIC ACID DERIVATIVE AND USE THEREOF” (TUOJIE BIOTECH (SHANGHAI) CO., LTD., priority 2021, published 2025).

Structures can show the parent of a compound that is named as a salt.

For data set [1], the target named is Apo(a) and ApoB protein assembly (Homo sapiens (Human), UniProt P08519). Nature of the data set: Test for activity of compounds in inhibiting Lp(a) assembly (double antibody ELISA). It is filed as biochemical. Particulars: plasma from human transgenic hApo(a) and hApoB mice; 37° C., 2 h; ELISA absorbance at 450 nm. The protocol: The disclosure used a double antibody ELISA method to measure the efficiency of Apo(a) and ApoB protein assembly. The antibodies were ApoB-Capture antibody (Mabtech) and Apo(a)-Detector antibody (Abcam); the test samples were plasma from human transgenic hApo(a) and hApoB mice and were diluted 500-fold before use.
Sequence of Apo(a) and ApoB protein assembly (P08519 20-2040): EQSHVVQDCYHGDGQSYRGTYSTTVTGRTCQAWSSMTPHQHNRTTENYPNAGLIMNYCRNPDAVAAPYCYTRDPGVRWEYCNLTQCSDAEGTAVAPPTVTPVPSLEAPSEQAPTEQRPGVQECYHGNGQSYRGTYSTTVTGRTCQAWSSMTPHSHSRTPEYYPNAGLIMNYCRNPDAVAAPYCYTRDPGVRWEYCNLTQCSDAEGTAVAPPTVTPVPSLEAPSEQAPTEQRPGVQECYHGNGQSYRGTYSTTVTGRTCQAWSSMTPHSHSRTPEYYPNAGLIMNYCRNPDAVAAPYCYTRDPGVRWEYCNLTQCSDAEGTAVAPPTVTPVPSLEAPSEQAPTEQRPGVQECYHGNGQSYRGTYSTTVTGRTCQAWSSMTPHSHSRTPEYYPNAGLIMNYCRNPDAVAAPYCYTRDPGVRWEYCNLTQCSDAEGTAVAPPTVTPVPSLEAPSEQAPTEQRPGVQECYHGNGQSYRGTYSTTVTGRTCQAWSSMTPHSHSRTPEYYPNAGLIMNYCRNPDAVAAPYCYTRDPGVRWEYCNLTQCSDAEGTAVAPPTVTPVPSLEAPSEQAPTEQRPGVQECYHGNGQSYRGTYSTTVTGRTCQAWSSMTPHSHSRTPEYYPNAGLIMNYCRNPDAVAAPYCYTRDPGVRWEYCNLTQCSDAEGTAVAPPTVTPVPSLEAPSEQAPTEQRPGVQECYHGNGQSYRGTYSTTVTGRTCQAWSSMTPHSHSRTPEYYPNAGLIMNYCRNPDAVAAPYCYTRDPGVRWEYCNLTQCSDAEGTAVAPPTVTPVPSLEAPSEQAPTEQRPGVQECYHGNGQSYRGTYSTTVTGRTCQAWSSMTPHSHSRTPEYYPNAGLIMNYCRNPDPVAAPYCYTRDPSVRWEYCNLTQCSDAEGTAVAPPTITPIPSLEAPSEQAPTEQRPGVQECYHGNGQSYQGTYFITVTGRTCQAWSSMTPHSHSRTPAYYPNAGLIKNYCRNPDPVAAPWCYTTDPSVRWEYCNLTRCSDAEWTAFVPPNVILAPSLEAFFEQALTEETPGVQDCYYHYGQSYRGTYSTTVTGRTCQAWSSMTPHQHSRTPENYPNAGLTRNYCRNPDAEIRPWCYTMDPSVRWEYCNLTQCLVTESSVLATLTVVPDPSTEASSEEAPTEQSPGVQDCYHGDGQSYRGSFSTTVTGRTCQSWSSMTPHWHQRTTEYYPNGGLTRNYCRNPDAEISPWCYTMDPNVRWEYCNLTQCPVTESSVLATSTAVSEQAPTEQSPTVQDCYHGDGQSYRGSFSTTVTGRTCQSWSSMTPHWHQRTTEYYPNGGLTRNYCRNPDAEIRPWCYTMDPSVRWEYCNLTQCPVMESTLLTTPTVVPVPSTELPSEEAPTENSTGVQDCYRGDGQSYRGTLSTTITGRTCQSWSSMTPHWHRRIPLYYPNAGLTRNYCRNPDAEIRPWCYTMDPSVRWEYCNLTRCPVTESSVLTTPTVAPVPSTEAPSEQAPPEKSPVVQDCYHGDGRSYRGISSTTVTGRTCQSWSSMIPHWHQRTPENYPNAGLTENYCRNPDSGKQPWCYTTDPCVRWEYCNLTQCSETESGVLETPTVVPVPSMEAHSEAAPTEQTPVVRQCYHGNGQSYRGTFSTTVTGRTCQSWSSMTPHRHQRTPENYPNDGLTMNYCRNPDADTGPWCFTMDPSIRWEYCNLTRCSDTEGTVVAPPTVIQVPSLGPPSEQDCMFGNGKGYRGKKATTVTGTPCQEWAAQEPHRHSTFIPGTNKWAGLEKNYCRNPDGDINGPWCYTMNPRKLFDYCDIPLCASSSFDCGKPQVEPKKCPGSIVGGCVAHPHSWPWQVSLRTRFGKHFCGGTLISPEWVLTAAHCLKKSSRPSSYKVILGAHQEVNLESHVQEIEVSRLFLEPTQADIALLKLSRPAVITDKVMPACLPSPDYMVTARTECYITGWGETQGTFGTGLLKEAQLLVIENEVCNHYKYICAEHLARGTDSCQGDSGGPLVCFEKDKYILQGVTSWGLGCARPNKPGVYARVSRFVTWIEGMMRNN
Experimental steps: Equal amounts of Apo(a) and ApoB serum were mixed with a serially diluted test compound (highest concentration at 100 nM, serially diluted 3-fold). The mixture was incubated in a 37° C. incubator for 2 h. The reaction was then terminated by adding 6-aminocaproic acid (EACA, purchased from Sigma) to a final concentration of 150 mM. The post-reaction solution was then added to an ELISA plate pre-coated with ApoB-Capture antibody, and the plate was incubated at room temperature for 2 h. Then the plate was washed 4 times with wash buffer; biotinylated Apo(a)-Detector antibody was added, and the plate was incubated at room temperature for 1 h. The plate was washed, and the chromogenic substrate 3,3′,5,5′-tetramethylbenzidine (TMB, purchased from Abcam) solution was added. After the plate was incubated at room temperature for 15 min, a reaction stop solution was added. Immediately after the solution was mixed well, the absorbance at 450 nm was measured using a microplate reader. Finally, data analysis and IC50 calculation were performed using GraphPad Prism 9 software.
The 0% inhibition rate for Apo(a) and ApoB protein assembly corresponds to the OD value where the compound concentration was 0 (1% DMSO); the 100% inhibition rate for Apo(a) and ApoB protein assembly corresponds to the OD value where only ApoB protein solution (a dilution of plasma from hApoB mice) was added.
(In general: ELISA stands for enzyme-linked immunosorbent assay.)

Data set [2] is described as follows: In vivo pharmacokinetic experiment on beagles. The conditions noted are these: male, beagle, dog, plasma, po, intragastric, 10 mg/kg. The protocol: Beagles were used as test animals. After intragastric administration of the compound of the disclosure to beagles, plasma concentrations at different time points were determined by LC/MS/MS. The pharmacokinetic behavior of the compound of the disclosure in beagles was studied and its pharmacokinetic profile was evaluated.
Test Animals: 2 Healthy Male Beagles Aged 8-36 Months Per Group
Compound solution preparation: A certain amount of compound was weighed out and normal saline was added to form a 2 mg/mL colorless clear solution.
Administration: Beagles were fasted overnight and then intragastrically dosed. Reference 1 and compound 6 were both administered at a dose of 10 mg/kg.
Procedure: Beagles were intragastrically administered the compound of the disclosure. Blood samples of about 0.6 mL were collected from the peripheral vein at 0.25, 0.5, 1, 2, 4, 6, 8, and 24 h post-dose and placed into test tubes containing EDTA-K2. The blood samples were centrifuged at about 4° C. at 2000 rpm for 10 min to separate plasma, and the plasma was stored at −75° C.
(§1) Determination of the content of the test compound in beagle plasma at these different blood collection time points: Samples of 33 μL (30 μL of plasma and 3 μL of blank) of the beagle plasma collected at these time points post-dose were taken and added to 18 μL of a 6% perchloric acid solution. After 30 s of vortexing, the mixture was centrifuged at a temperature of 4° C. at 3900 rpm for 15 min, and 200 μL of alkalinized (the pH was adjusted to 10-11 with ammonia water) acetonitrile solution containing dexamethasone as an internal standard was then added to precipitate protein. After 30 s of vortexing, the mixture was centrifuged at 4° C. at 3900 rpm for 15 min. The supernatants of the plasma samples were taken and 3-fold diluted with water, and 8 μL of dilution was taken for LC/MS/MS analysis.
(§2) After plasma concentrations were determined by LC/MS/MS analysis, pharmacokinetic parameters were calculated using WinNonlin 6.1 software and a non-compartmental model method.

Data set [3] is described as follows: In vivo pharmacokinetic experiment on cynomolgus monkeys. Particulars: intragastric, 50 mg/kg. The protocol: Cynomolgus monkeys were used as test animals. After intragastric administration of the compound of the disclosure to cynomolgus monkeys, plasma concentrations at different time points were determined by LC/MS/MS. The pharmacokinetic behavior of the compound of the disclosure in cynomolgus monkeys was studied and its pharmacokinetic profile was evaluated.
Test Animals: 2 Healthy Cynomolgus Monkeys Aged 24-36 Months Per Group (One Male and One Female)
Compound solution preparation: Certain amounts of compound were weighed out and normal saline was added to form 10 mg/mL (reference 1) and 3 mg/mL (compound 6) colorless clear solutions.
Administration: Cynomolgus monkeys were fasted overnight and then intragastrically dosed. Reference 1 was administered at a dose of 50 mg/kg, and compound 6 was administered at a dose of 15 mg/kg.
Procedure: Cynomolgus monkeys were intragastrically administered the compound of the disclosure. Blood samples of about 0.5 mL were collected from the peripheral vein at 0.25, 0.5, 1, 2, 4, 6, 8, and 24 h post-dose and placed into test tubes containing EDTA-K2. The blood samples were centrifuged at about 4° C. at 2000 rpm for 10 min to separate plasma, and the plasma was stored at −75° C.
as §1, with “cynomolgus monkey” for “beagle”
as §2

The nature of data set [4]: High-dose single-dose tolerance experiment on mice. It is filed as in vivo, C57/6J mice. The protocol: C57/6J mice were used as test animals and administered a high dose of the compound of the disclosure by oral gavage. Clinical observations were carried out on the mice, and the safety of the compound of the disclosure was evaluated.
Experimental method: 8 male C57/6J mice were numbered 1-8 and weighed. The mice were fasted for 4 h before the experiment and weighed after the fast (0 h). Six mice with body weights closer to the average were selected and divided into 2 groups of 3.
The first group (G1) was administered reference 1, and the second group (G2) was administered the compound of the disclosure, Example 6. In both groups G1 and G2, the compounds were administrated by oral gavage at a dose of 1000 mg/kg, with normal saline as a vehicle. Clinical observations were carried out on the mice in the experimental group at 15 min, 30 min, 1 h, 2 h, 4 h, 6 h, and 24 h post-dose, and both groups were given food at 2 h post-dose.

Broadly, the IC50 is the point on the concentration scale where inhibition reaches its midpoint. Low values mean higher potency, high ones lower potency. For the compound `O=C(O)[C@@H](Cc1cc(F)cc(CN(Cc2cc(F)cc(C[C@H](C(=O)O)[C@H]3CCNC3)c2)Cc2cc(F)cc(C[C@H](C(=O)O)[C@H]3CCNC3)c2)c1)[C@H]1CCNC1` [Compound 1, (2S)-3-(3-{[Bis({3-[(2S)-2-carboxy-2-[(3R)-pyrrolidin-3-yl]ethyl]-5-fluorophenyl}methyl)amino]methyl}-5-fluorophenyl)-2-[(3R)-pyrrolidin-3-yl]propanoic acid], the concentration for half-maximal inhibition (IC50) in data set [1] came out at 0.75 nM. This lies in the sub-nanomolar range.

`O=C(O)[C@@H](Cc1cccc(CN(Cc2cccc(C[C@H](C(=O)O)C3CCNCC3)c2)Cc2cccc(C[C@H](C(=O)O)C3CCNCC3)c2)c1)C1CCNCC1` [Compound 2, (2S)-3-(3-{[Bis({3-[(2S)-2-carboxy-2-(piperidin-4-yl)ethyl]phenyl}methyl)amino]methyl}phenyl)-2-(piperidin-4-yl)propanoic acid] displayed an IC50 in data set [1] of 1.7 nM.

In data set [1], `O=C(O)C(F)(Cc1cccc(CN(Cc2cccc(CC(F)(C(=O)O)[C@H]3CCNC3)c2)Cc2cccc(CC(F)(C(=O)O)[C@H]3CCNC3)c2)c1)[C@H]1CCNC1` (stereo partly drawn) [Compound 3, 3-[3-({Bis[(3-{2-carboxy-2-fluoro-2-[(3S)-pyrrolidin-3-yl]ethyl}phenyl)methyl]amino}methyl)phenyl]-2-fluoro-2-[(3S)-pyrrolidin-3-yl]propanoic acid] showed an IC50 of 1.4 nM. This IC50 and that of the compound before are within 1.5-fold of each other.

In the case of `O=C(O)[C@@H](Cc1cccc(CN(CCN(Cc2cccc(C[C@H](C(=O)O)[C@H]3CCNC3)c2)Cc2cccc(C[C@H](C(=O)O)[C@H]3CCNC3)c2)Cc2cccc(C[C@H](C(=O)O)[C@H]3CCNC3)c2)c1)[C@H]1CCNC1` [Compound 4, (2S)-3-{3-[({2-[Bis({3-[(2S)-2-carboxy-2-[(3R)-pyrrolidin-3-yl]ethyl]phenyl}methyl)amino]ethyl}({3-[(2S)-2-carboxy-2-[(3R)-pyrrolidin-3-yl]ethyl]phenyl}methyl)amino)methyl]phenyl}-2-[(3R)-pyrrolidin-3-yl]propanoic acid], the IC50 in data set [1] stood at 0.85 nM.

The compound `O=C(O)[C@@H](Cc1cccc(CNCCN(Cc2cccc(C[C@H](C(=O)O)[C@H]3CCNC3)c2)Cc2cccc(C[C@H](C(=O)O)[C@H]3CCNC3)c2)c1)[C@H]1CCNC1` [Compound 5, (2S)-3-(3-{[({3-[(2S)-2-Carboxy-2-[(3R)-pyrrolidin-3-yl]ethyl]phenyl}methyl)({2-[({3-[(2S)-2-carboxy-2-[(3R)-pyrrolidin-3-yl]ethyl]phenyl}methyl)amino]ethyl})amino]methyl}phenyl)-2-[(3R)-pyrrolidin-3-yl]propanoic acid] gave an IC50 in data set [1] of 0.78 nM.

Consider `O=C(O)[C@@H](Cc1cccc(CN(CCNc2cccc(C[C@H](C(=O)O)[C@H]3CCNC3)c2)Cc2cccc(C[C@H](C(=O)O)[C@H]3CCNC3)c2)c1)[C@H]1CCNC1` [Compound 7, (2S)-3-[3-({[2-({3-[(2S)-2-Carboxy-2-[(3R)-pyrrolidin-3-yl]ethyl]phenyl}amino)ethyl]({3-[(2S)-2-carboxy-2-[(3R)-pyrrolidin-3-yl]ethyl]phenyl}methyl)amino}methyl)phenyl]-2-[(3R)-pyrrolidin-3-yl]propanoic acid pentahydrochloride], for which the IC50 in data set [1] is 0.76 nM. This IC50 and that of the compound before are within 1.5-fold of each other.

Broadly, the AUC is concentration integrated over time. Take `O=C(O)[C@@H](Cc1cccc(CN(Cc2cccc(C[C@H](C(=O)O)[C@H]3CCNC3)c2)Cc2cccc(C[C@H](C(=O)O)[C@H]3CCNC3)c2)c1)[C@H]1CCNC1` [Reference 1, reference compound]: the exposure (AUC) in data set [2] (read-out: Area under curve AUC) was 23000 ng·h/mL; in data set [3] (both sexes, cynomolgus monkey, plasma, po, read-out: Area under curve AUC) it was 22200 ng·h/mL. Further, the half-life in data set [2] (read-out: Half-life T1/2 (converted)) is 20.7 h; in data set [3] (both sexes, cynomolgus monkey, plasma, po, read-out: Half-life T1/2 (converted)), 17.7 h. For the same compound, the Cmax was found to be 1630 ng/mL in data set [2] (read-out: Maximum plasma concentration Cmax) and 2190 ng/mL in data set [3] (both sexes, cynomolgus monkey, plasma, po, read-out: Maximum plasma concentration Cmax). Moreover, in data set [3], the Unit-dose area under curve AUC/D was 443 ng·h/mL per mg/kg. Further, the “body weight trend of the mice” value in data set [4] (7 d after high-dose (1000 mg/kg) administration, conclusion in words) is reported as “significant downward trend”. In data set [4] (male C57/6J mice, single oral gavage 1000 mg/kg, mean, Day 0), the “Mouse body weight, Day 0” value amounted to 25.87 g. Also, the “Mouse body weight, Day 3” value in data set [4] (male C57/6J mice, single oral gavage 1000 mg/kg, mean, Day 3) is given as 25.70 g. Also, the “Mouse body weight, Day 5” value in data set [4] (male C57/6J mice, single oral gavage 1000 mg/kg, mean, Day 5) is 25.10 g. For the same compound, in data set [4] (male C57/6J mice, single oral gavage 1000 mg/kg, mean, Day 7), the “Mouse body weight, Day 7” value was found to be 24.53 g.
